Structures can show the parent of a compound that is named as a salt.
Row | melting point [°C] | Structure (SMILES)
1 | 113 to 126 | CC(C)(F)c1cnn2c(-c3ccc(F)c(-c4cccnc4)c3)cnc2n1 (as salt: hydrochloride) [Example 3, 3-(1-Fluoro-1-methylethyl)-7-[4-fluoro-3-(pyridin-3-yl)phenyl]imidazo[1,2-b][1,2,4]triazine]
2 | 211 to 216 | Cc1cnn2c(-c3cccc(-c4ccccc4C#N)c3)cnc2n1 [Example 1, 3′-(3-methylimidazo[1,2-b][1,2,4]triazin-7-yl)biphenyl-2-carbonitrile]
3 | 168 to 174 | N#Cc1ccccc1-c1cc(-c2cnc3nc(C(F)(F)F)cnn23)ccc1F [Example 2, 2′-Fluoro-5′-(3-trifluoromethylimidazo[1,2-b][1,2,4]triazin-7-yl)biphenyl-2-carbonitrile]
4 | 211 to 215 | N#Cc1ccccc1-c1cc(-c2cnc3nccnn23)ccc1F [Example 5, 2′-Fluoro-5′-(imidazo[1,2-b][1,2,4]triazin-7-yl)biphenyl-2-carbonitrile]
5 | 128 to 131 | Fc1ccc(-c2cnc3nc(C(F)(F)F)cnn23)cc1-c1ccccn1 [Example 6, 7-[4-Fluoro-3-(pyridin-2-yl)phenyl]-3-trifluoromethylimidazo[1,2-b][1,2,4]triazine]
6 | 167 to 168 | N#Cc1ccccc1-c1cccc(-c2cnc3nc(C(F)(F)F)cnn23)c1F [Example 7, 2′-Fluoro-3′-(3-trifluoromethylimidazo[1,2-b][1,2,4]triazin-7-yl)biphenyl-2-carbonitrile]
7 | 199 to 200 | CC(C)(O)c1cnn2c(-c3ccc(F)c(-c4cccnc4)c3)cnc2n1 [Example 14, 2-{7-[4-Fluoro-3-(pyridin-3-yl)phenyl]imidazo[1,2-b][1,2,4]triazin-3-yl}propan-2-ol]
8 | 233 to 237 | CC(C)(O)c1cnn2c(-c3ccc(F)c(-c4ccncc4)c3)cnc2n1 [Example 15, 2-{7-[4-Fluoro-3-(pyridin-4-yl)phenyl]imidazo[1,2-b][1,2,4]triazin-3-yl}propan-2-ol]
9 | 187 | CC(C)(O)c1cnn2c(-c3ccc(F)c(-c4ccccc4C#N)c3)cnc2n1 [Example 16, 2′-Fluoro-5′-[3-(1-hydroxy-1-methylethyl)imidazo[1,2-b][1,2,4]triazin-7-yl]biphenyl-2-carbonitrile]
10 | 221 to 223 | CC(C)(O)c1cnn2c(-c3cccc(-c4ccncc4)c3F)cnc2n1 [Example 19, 2-{7-[2-Fluoro-3-(pyridin-4-yl)phenyl]imidazo[1,2-b][1,2,4]triazin-3-yl}propan-2-ol]
11 | 166 | CC(C)(O)c1cnn2c(-c3cccc(-c4ccccc4C#N)c3)cnc2n1 [Example 22, 3′-[3-(1-Hydroxy-1-methylethyl)imidazo[1,2-b][1,2,4]triazin-7-yl]biphenyl-2-carbonitrile]
12 | 187 to 188 | CC(C)(F)c1cnn2c(-c3ccc(F)c(-c4c(F)cccc4C#N)c3)cnc2n1 [Example 25, 6,2′-Difluoro-5′-[3-(1-fluoro-1-methylethyl)imidazo[1,2-b][1,2,4]triazin-7-yl]biphenyl-2-carbonitrile]
13 | 222 | CC(C)(O)c1cnn2c(-c3ccc(F)c(-c4ccc(F)cn4)c3)cnc2n1 [Example 29, 2-{7-[4-Fluoro-3-(5-fluoropyridin-2-yl)phenyl]imidazo[1,2-b][1,2,4]triazin-3-yl}propan-2-ol]
